In ChEMBL document CHEMBL1909046, “DrugMatrix in vitro pharmacology data”:

What was measured:
[1] = target: Beta-2 adrenergic receptor (Homo sapiens, UniProt P07550); experiment: DRUGMATRIX: Adrenergic beta2 radioligand binding (ligand: [3H] CGP-12177); type: cell membranes, CHO, Membrane; conditions: cho; Not Active = under 50% inhibition at 10 µM
[2] = target: Vasopressin V1a receptor (Homo sapiens, UniProt P37288); type: cell membranes, Membrane; conditions: hek293; also: in other assays of this panel Not Active means under 50% inhibition at 10 µM
Chain of Vasopressin V1a receptor (P37288 whole entry): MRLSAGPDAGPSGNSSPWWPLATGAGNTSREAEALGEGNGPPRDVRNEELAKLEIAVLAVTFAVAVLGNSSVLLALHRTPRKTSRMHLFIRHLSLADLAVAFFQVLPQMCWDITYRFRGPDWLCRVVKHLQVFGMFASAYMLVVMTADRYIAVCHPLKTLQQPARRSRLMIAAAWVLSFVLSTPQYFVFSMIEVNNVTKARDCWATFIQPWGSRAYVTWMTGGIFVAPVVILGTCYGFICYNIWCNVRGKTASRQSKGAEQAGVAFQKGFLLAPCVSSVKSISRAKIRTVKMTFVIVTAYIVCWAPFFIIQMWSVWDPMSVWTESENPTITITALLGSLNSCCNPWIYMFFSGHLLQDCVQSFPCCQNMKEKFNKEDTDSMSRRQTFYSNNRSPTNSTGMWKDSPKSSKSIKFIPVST

[3] = target: Carbonic anhydrase 2 (Homo sapiens, UniProt P00918); experiment: DRUGMATRIX: Carbonic Anhydrase II enzyme inhibition (substrate: 4-Nitrophenyl acetate (4-NPA)); type: tissue-based, Erythrocyte; conditions: erythrocyte; Not Active = under 50% inhibition at 10 µM
[4] = target: Glycine receptor (Rattus norvegicus, UniProt P22771+P24524+P07727+P20781); type: cell membranes, Wistar, Spinal cord, Membrane; also: in other assays of this panel Not Active means under 50% inhibition at 10 µM
[5] = target: T1, 3-hydroxy-3-methylglutaryl-coenzyme A reductase (Homo sapiens, UniProt P04035); parameters: species or system Escherichia coli;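 also: enzyme inhibition assay of HMG-CoA reductase using radiolabeled [14C]HMG-CoA as substrate; in other assays of this panel Not Active means under 50% inhibition at 10 µM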
T1 sequence (P04035 whole entry): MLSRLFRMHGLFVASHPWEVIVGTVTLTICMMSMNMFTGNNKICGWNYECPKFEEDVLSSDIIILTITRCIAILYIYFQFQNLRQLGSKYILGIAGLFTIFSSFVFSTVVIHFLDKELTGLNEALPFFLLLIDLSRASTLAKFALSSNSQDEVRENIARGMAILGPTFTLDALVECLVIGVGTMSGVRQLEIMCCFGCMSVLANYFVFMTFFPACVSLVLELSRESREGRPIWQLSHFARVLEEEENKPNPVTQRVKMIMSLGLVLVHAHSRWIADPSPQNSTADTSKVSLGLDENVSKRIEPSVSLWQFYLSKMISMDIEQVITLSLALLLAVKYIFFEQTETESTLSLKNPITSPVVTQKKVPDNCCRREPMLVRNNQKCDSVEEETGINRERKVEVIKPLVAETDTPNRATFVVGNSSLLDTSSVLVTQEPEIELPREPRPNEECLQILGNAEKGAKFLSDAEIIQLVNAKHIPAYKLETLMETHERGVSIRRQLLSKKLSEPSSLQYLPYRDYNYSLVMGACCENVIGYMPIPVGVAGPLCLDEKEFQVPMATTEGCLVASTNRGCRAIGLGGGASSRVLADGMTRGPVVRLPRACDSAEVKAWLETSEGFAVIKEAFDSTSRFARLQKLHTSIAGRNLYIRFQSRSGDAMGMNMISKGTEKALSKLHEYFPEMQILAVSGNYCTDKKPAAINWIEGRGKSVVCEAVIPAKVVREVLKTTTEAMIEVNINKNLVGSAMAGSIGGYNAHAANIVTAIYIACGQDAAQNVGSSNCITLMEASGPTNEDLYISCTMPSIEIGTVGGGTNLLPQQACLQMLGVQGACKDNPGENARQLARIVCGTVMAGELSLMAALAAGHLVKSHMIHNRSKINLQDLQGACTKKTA

[6] = target: Insulin receptor (Rattus norvegicus, UniProt P15127); type: cell membranes, Wistar, Liver, Membrane; also: in other assays of this panel Not Active means under 50% inhibition at 10 µM
Chain of Insulin receptor (P15127 27-759 limits assumed): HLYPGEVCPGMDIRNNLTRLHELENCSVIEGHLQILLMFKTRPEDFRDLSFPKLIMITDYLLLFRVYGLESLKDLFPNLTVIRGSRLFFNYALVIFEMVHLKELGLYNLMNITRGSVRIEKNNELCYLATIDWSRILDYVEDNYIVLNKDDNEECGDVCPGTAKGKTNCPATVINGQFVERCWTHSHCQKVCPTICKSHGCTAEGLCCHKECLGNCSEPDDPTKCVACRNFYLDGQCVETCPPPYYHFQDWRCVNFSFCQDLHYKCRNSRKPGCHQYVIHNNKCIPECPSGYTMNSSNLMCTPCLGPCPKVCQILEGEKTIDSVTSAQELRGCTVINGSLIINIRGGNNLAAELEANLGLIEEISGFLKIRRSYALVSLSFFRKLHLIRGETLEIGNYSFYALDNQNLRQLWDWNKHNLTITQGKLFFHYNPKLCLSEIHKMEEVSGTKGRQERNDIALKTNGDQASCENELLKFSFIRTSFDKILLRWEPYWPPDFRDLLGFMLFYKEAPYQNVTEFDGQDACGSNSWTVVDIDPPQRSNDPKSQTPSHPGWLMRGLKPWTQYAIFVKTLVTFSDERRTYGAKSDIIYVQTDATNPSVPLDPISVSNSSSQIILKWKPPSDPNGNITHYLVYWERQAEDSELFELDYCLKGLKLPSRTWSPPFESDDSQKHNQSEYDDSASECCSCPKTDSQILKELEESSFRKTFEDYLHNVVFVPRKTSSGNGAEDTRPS
Chain of Insulin receptor (P15127 764-1383 limits assumed): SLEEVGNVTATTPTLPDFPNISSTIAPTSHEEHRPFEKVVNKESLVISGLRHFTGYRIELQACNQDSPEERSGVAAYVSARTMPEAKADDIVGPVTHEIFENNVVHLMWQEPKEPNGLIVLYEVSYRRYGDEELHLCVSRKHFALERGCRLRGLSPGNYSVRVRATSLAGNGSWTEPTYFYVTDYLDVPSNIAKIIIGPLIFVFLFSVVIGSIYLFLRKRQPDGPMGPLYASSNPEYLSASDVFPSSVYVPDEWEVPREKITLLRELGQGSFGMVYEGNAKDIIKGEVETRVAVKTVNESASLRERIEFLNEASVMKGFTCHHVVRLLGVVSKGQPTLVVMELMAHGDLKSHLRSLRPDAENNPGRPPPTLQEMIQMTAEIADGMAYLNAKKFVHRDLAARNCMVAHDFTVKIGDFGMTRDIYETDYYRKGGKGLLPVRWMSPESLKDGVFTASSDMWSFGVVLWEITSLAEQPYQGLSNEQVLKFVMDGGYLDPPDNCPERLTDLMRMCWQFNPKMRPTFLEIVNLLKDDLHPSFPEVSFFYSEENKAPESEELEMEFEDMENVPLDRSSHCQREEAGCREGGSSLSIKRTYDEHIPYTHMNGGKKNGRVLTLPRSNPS

[7] = target: Voltage-gated inwardly rectifying potassium channel KCNH2 (Homo sapiens, UniProt Q12809); conditions: hek293; also: in other assays of this panel Not Active means under 50% inhibition at 10 µM
Chain of Voltage-gated inwardly rectifying potassium channel KCNH2 (Q12809 whole entry): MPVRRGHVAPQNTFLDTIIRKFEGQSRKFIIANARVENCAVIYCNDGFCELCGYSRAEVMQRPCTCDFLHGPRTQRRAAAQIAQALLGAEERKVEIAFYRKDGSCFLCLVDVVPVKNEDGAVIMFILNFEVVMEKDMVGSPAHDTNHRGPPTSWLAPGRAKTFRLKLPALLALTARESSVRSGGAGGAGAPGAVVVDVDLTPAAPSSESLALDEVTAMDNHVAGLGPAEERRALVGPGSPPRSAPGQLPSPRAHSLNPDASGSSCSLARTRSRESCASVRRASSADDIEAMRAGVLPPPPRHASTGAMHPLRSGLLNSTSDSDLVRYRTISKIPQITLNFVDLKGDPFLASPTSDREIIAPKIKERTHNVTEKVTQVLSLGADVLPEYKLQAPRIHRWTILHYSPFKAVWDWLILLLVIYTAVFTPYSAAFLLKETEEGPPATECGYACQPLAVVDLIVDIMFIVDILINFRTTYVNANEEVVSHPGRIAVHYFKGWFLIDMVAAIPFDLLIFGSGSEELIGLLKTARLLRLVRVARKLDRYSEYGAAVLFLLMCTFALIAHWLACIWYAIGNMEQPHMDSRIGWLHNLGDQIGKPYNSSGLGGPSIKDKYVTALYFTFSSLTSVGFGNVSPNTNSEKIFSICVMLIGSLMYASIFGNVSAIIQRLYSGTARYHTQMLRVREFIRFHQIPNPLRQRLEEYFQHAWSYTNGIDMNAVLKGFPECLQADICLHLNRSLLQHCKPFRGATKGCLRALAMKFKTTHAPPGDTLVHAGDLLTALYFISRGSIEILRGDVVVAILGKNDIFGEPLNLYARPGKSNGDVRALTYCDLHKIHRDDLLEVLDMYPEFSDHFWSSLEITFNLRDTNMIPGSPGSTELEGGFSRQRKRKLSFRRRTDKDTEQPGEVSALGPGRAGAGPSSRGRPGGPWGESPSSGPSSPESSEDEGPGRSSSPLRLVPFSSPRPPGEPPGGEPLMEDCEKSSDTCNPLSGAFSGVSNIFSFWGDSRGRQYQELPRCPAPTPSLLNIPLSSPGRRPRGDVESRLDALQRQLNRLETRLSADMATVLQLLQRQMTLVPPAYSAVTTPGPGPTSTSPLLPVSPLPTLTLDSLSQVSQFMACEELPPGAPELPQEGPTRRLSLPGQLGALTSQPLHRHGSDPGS

Chain of Beta-2 adrenergic receptor (P07550 whole entry): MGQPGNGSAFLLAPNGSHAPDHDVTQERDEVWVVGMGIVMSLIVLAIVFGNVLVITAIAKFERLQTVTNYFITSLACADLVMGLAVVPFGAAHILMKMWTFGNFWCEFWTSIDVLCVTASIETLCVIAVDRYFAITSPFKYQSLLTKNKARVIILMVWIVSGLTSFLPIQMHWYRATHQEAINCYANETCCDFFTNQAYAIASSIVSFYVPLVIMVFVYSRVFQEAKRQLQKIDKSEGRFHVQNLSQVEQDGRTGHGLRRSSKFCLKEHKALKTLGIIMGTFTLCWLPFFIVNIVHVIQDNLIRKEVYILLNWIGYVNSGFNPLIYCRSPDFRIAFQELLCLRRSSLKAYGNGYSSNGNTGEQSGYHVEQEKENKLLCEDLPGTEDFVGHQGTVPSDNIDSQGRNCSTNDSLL

CC[C@H]1OC(=O)[C@H](C)[C@@H](O[C@H]2C[C@@](C)(OC)[C@@H](O)[C@H](C)O2)[C@H](C)[C@@H](O[C@@H]2O[C@H](C)C[C@H](N(C)C)[C@H]2O)[C@](C)(O)C[C@@H](C)CN(C)[C@H](C)[C@@H](O)[C@]1(C)O [AZITHROMYCIN]
Not Active: IC50 [1] | IC50 [2] | IC50 [3] | IC50 [4] | IC50 [5] | IC50 [6] | IC50 [7] | Ki [7]

CC(C)(C)c1ccc(S(=O)(=O)/C=C/C#N)cc1 [BAY-11-7085]
Not Active: IC50 [1] | IC50 [2] | IC50 [3] | IC50 [4] | IC50 [5] | IC50 [6] | IC50 [7] | Ki [7]

CCc1oc2ccccc2c1C(=O)c1cc(Br)c(O)c(Br)c1 [BENZBROMARONE]
Not Active: IC50 [1] | IC50 [2] | IC50 [3] | IC50 [4] | IC50 [5] | IC50 [6] | IC50 [7] | Ki [7]

O=c1cc(-c2ccccc2)oc2ccc3ccccc3c12 [BETA-NAPHTHOFLAVONE]
Not Active: IC50 [1] | IC50 [2] | IC50 [3] | IC50 [4] | IC50 [5] | IC50 [6] | IC50 [7] | Ki [7]

CC(C)C[C@H]1C(=O)N2CCC[C@H]2[C@]2(O)O[C@](NC(=O)[C@@H]3C=C4c5cccc6[nH]c(Br)c(c56)C[C@H]4N(C)C3)(C(C)C)C(=O)N12 [BROMOCRIPTINE]
Not Active: IC50 [1] | IC50 [2] | IC50 [3] | IC50 [4] | IC50 [5] | IC50 [6] | IC50 [7] | Ki [7]

CS(=O)(=O)OCCCCOS(C)(=O)=O [BUSULFAN]
Not Active: IC50 [1] | IC50 [2] | IC50 [3] | IC50 [4] | IC50 [5] | IC50 [6] | IC50 [7] | Ki [7]

O=C(/C=C/c1ccc(O)c(O)c1)OCCc1ccccc1 [CAFFEIC ACID PHENETHYL ESTER]
Not Active: IC50 [1] | IC50 [2] | IC50 [3] | IC50 [4] | IC50 [5] | IC50 [6] | IC50 [7] | Ki [7]

COc1cc(CNC(=O)CCCC/C=C/C(C)C)ccc1O [CAPSAICIN]
Not Active: IC50 [1] | IC50 [2] | IC50 [3] | IC50 [4] | IC50 [5] | IC50 [6] | IC50 [7] | Ki [7]

NC(=O)N1c2ccccc2C=Cc2ccccc21 [CARBAMAZEPINE]
Not Active: IC50 [1] | IC50 [2] | IC50 [3] | IC50 [4] | IC50 [5] | IC50 [6] | IC50 [7] | Ki [7]

CCOC(=O)n1ccn(C)c1=S [CARBIMAZOLE]
Not Active: IC50 [1] | IC50 [2] | IC50 [3] | IC50 [4] | IC50 [5] | IC50 [6] | IC50 [7] | Ki [7]

Oc1ccccc1O [CATECHOL]
Not Active: IC50 [1] | IC50 [2] | IC50 [3] | IC50 [4] | IC50 [5] | IC50 [6] | IC50 [7] | Ki [7]

CO[C@@]1(NC(=O)CSCC#N)C(=O)N2C(C(=O)O)=C(CSc3nnnn3C)CS[C@@H]21 [CEFMETAZOLE]
Not Active: IC50 [1] | IC50 [2] | IC50 [3] | IC50 [4] | IC50 [5] | IC50 [6] | IC50 [7] | Ki [7]

CN(C(=O)CCCOc1ccc2[nH]c(=O)ccc2c1)C1CCCCC1 [CILOSTAMIDE]
Not Active: IC50 [1] | IC50 [2] | IC50 [3] | IC50 [4] | IC50 [5] | IC50 [6] | IC50 [7] | Ki [7]

CC(C)(Oc1ccc(C2CC2(Cl)Cl)cc1)C(=O)O (stereo not given) [CIPROFIBRATE]
Not Active: IC50 [1] | IC50 [2] | IC50 [3] | IC50 [4] | IC50 [5] | IC50 [6] | IC50 [7] | Ki [7]

Nc1nc(Cl)nc2c1ncn2[C@H]1C[C@H](O)[C@@H](CO)O1 [CLADRIBINE]
Not Active: IC50 [1] | IC50 [2] | IC50 [3] | IC50 [4] | IC50 [5] | IC50 [6] | IC50 [7] | Ki [7]

CC[C@H]1OC(=O)[C@H](C)[C@@H](O[C@H]2C[C@@](C)(OC)[C@@H](O)[C@H](C)O2)[C@H](C)[C@@H](O[C@@H]2O[C@H](C)C[C@H](N(C)C)[C@H]2O)[C@](C)(OC)C[C@@H](C)C(=O)[C@H](C)[C@@H](O)[C@]1(C)O [CLARITHROMYCIN]
Not Active: IC50 [1] | IC50 [2] | IC50 [3] | IC50 [4] | IC50 [5] | IC50 [6] | IC50 [7] | Ki [7]

O=C(O)c1cc(=O)c2c(OCC(O)COc3cccc4oc(C(=O)O)cc(=O)c34)cccc2o1 [CROMOLYN]
Not Active: IC50 [1] | IC50 [2] | IC50 [3] | IC50 [4] | IC50 [5] | IC50 [6] | IC50 [7] | Ki [7]

O=P1(N(CCCl)CCCl)NCCCO1 (stereo not given) [CYCLOPHOSPHAMIDE ANHYDROUS]
Not Active: IC50 [1] | IC50 [2] | IC50 [3] | IC50 [4] | IC50 [5] | IC50 [6] | IC50 [7] | Ki [7]

CC(=O)O[C@]1(C(C)=O)CC[C@H]2[C@@H]3C=C(Cl)C4=CC(=O)[C@@H]5C[C@@H]5[C@]4(C)[C@H]3CC[C@@]21C [CYPROTERONE ACETATE]
Not Active: IC50 [1] | IC50 [2] | IC50 [3] | IC50 [4] | IC50 [5] | IC50 [6] | IC50 [7] | Ki [7]

Nc1nc(N)nc(NC2CC2)n1 [CYROMAZINE]
Not Active: IC50 [1] | IC50 [2] | IC50 [3] | IC50 [4] | IC50 [5] | IC50 [6] | IC50 [7] | Ki [7]
